Laboratory results reported in patent US6395745B1, “Alkaloid halide salts of swainsonine and methods of use” (priority 1997, dated 2002).
≈ marks a conversion by molar mass, not a printed value. Counter-ions that a name gives are not always drawn.

Assays:
[1] = Accelerated stability of stressed solid samples, percentage remaining by HPLC; type: physicochemical; conditions: for percentage remaining, condition (e): 40° C. with 75% relative humidity for seven days; for percentage remaining, condition (d): 70° C. with low humidity for seven days; for percentage remaining, condition (c): 105° C. under nitrogen for seven days (*=average of two samples); for percentage remaining, condition (b): 105° C. with atmospheric oxygen for seven days (*=average of two samples); for percentage remaining, condition (a): UV light for 7 days
From the text: Samples of swainsonine free base synthesized using synthetic routes developed by Dr. David Dime (Toronto Research Chemicals, Toronto, Ontario) and Dr. William Pearson (University of Michigan, Ann Arbor, Mich.), were recrystallized to obtain either the hydrochloride salt, the hydrobromide salt or the free base of swainsonine. Samples were weighed and exposed to the conditions described below.
To model long-term stability or shelf life, various conditions were used to accelerate the decomposition process. Samples of crystalline prism swainsonine hydrochloride salt and swainsonine free base (a white, fluffy powder obtained from swainsonine hydrochloride were recrystallized from chloroform-methanol-diethyl ether) were weighed and exposed to conditions described below (stressed samples). Unstressed samples were prepared at 1 mg/ml concentration and chromatographed in sextuplicate on each run. After the indicated time interval each stressed sample was diluted with mobile phase at the same concentration as the unstressed sample. The percentage remaining swainsonine hydrochloride or swainsonine free base was calculated based on the percentage of either the hydrochloride or the free base in the unstressed sample.
The conditions included (a) UV light for 7 days; (b) 105° C. with atmospheric oxygen for seven days (*=average of two samples); (c) 105° C. under nitrogen for seven days (*=average of two samples); (d) 70° C. with low humidity for seven days; and (e) 40° C. with 75% relative humidity for seven days. Other tests include (f) UV for 24 hours; (g) 100° C. aqueous solution for two hours; (h) aqueous acidic treatment for 24 hours; (i) aqueous alkali treatment for 4 hours; and (j) (aqueous) 3% hydrogen peroxide for 4 hours. […] The physical properties of swainsonine hydrochloride compared to the free base and swainsonine hydrobromide, and swainsonine hydrofluoride are shown in Table 5.

[2] = mouse, in vivo; cited from earlier work
[3] = mouse, in vivo; cited from earlier work; remark: listed apart in the source
NK cell = conditions: cited from earlier work
[4] = test system: splenic and bone marrow (BM) cell; conditions: cited from earlier work
human MeWo melanoma = conditions: orally or by mini-osmotic pumps; cited from earlier work
LAK cell = conditions: cited from earlier work
[5] = test system: granulocyte-macrophage progenitor cells (CFU-GM); test: Murine bone marrow progenitor cell assay in methylcellulose, CFU-GM; type: cell-based, C57BL/6 mouse; conditions: FIG. 11
Method: (§1) The healthy and GD0039 treated mice were euthanized by CO2 asphyxiation. Bone marrow (BM) cell suspensions were prepared under sterile conditions by flushing both femurs and tibiae with IMDM/FBS using a 26 gauge needle. Single cell suspensions were made up to 10.0 ml IMDM/FBS. The concentration of nucleated cells in each suspension was determined by triplicate counts on a hemocytometer. A portion of the cells was further diluted in media to the appropriate concentration before plating for the progenitor assay.
Colony-forming units (CFUs) were estimated by the methylcellulose method. One milliliter suspensions, containing 2×10^5 nucleated BM cells, in 0.1 ml of IMDM and 0.9 ml MethoCult (M3330), were plated in triplicate in 35 mm tissue culture dishes. Swainsonine hydrochloride or swainsonine were added to certain plates, in 0.1 ml of IMDM at concentrations of 30 μg/ml and 3 μg/ml, which gave final concentrations of […]. The MethoCult M3330 contains 30% FBS and 10 μg/ml erythropoietin and is designed for the growth of early erythroid progenitor cells (CFU-E), which were scored after 3 days of incubation at 37° C. in a humidified atmosphere containing 5% CO2. […] Colonies containing more than 20 cells were scored using an inverted microscope with brightfield optics and 40× or 100× magnification. […]

murine tumor cells = conditions: organ-colonization and spontaneous metastasis assays; cited from earlier work
HT29m colon carcinoma = conditions: orally or by mini-osmotic pumps; cited from earlier work
tumor cell invasion = conditions: in vitro; cited from earlier work
[6] = test system: early erythroid progenitor cells (CFU-E); test: Murine bone marrow progenitor cell assay in methylcellulose, CFU-E; type: cell-based, C57BL/6 mice
Method: Pathogen-free C57BL/6 female mice, 8-9 weeks old, obtained from Jackson Laboratories were used. The room environment and photoperiod were controlled: 24° C.; humidity, 50±20%; 12 hr light and 12 hr dark. Mice were housed one per cage with ad libitum accesses to standard pelleted commercial laboratory diet and to sterile (autoclaved) tap water.
Swainsonine hydrochloride was manufactured by Seres Laboratories, Calif. FBS and methylcellulose (MethoCult M3330) were purchased from Stem Cell Technologies, Inc. (Vancouver. BC). Iscove's modified Dulbecco's medium was prepared using powdered media from Gibco BRL, deionized water and filter sterilization. For the handling of cells, the media was supplemented with 2% FBS and 50 μM β-mercaptoethanol (referred to as IMDM/FBS).
as §1
Colony-forming units (CFUs) were estimated by the methylcellulose method. One milliliter suspensions, containing 2×10^5 nucleated BM cells, in 0.1 ml of IMDM and 0.9 ml MethoCult (M3330), were plated in triplicate in 35 mm tissue culture dishes. […] The MethoCult M3330 contains 30% FBS and 10 μg/ml erythropoietin and is designed for the growth of early erythroid progenitor cells (CFU-E), which were scored after 3 days of incubation at 37° C. in a humidified atmosphere containing 5% CO2. […] Colonies containing more than 20 cells were scored using an inverted microscope with brightfield optics and 40× or 100× magnification.

[7] = Solubility in distilled water at room temperature; type: physicochemical; conditions: distilled water, water
Method: The melting point of the clear swainsonine hydrochloride crystal (prism) was 190-191° C. The solubility of swainsonine hydrochloride in distilled water at room temperature was about 3 g/ml, in contrast to the solubility of swainsonine free base, which is about 0.8 g/ml (see Table 5).

Q: Which “percentage remaining, condition (e)” value ([1]; hydrobromide salt) does the source give for `O[C@H]1[C@H]2[C@H](O)CCCN2C[C@H]1O` [swainsonine hydrobromide, Swainsonine hydrobromide salt] here?
A: 91.4%

Q: What about the “percentage remaining, condition (d)” value ([1]; hydrobromide salt) of the same compound?
A: 95.5%

Q: And the “percentage remaining, condition (c)” value ([1]; hydrobromide salt)?
A: 92.1%

Q: And the “percentage remaining, condition (b)” value ([1]; hydrobromide salt)?
A: 88.3%

Q: What about the “percentage remaining, condition (a)” value ([1]; hydrobromide salt) of the same compound?
A: 71.1%

Q: Which results are given for `O[C@H]1[C@H]2[C@H](O)CCCN2C[C@H]1O` [swainsonine]?
A: lethal doses of irradiation [2]: protect; lethality of various chemotherapeutic agents [3]: protect against the lethality; NK cell activity (NK cell): increase; splenic and bone marrow (BM) cell proliferation [4]: increase; growth rate of tumor xenografts (human MeWo melanoma): inhibited the growth rate; percentage remaining, condition (e) ([1]; listed as SW): 102.5%; percentage remaining, condition (d) ([1]; listed as SW): 98.5%; percentage remaining, condition (c) ([1]; listed as SW): 9.7%*; percentage remaining, condition (b) ([1]; listed as SW): 20.0%*; percentage remaining, condition (a) ([1]; listed as SW): 99.3%; LAK cell activity (LAK cell): increase; effect on granulocyte-macrophage progenitor cells in vitro [5]: stimulate; metastatic potential of treated murine tumor cells (murine tumor cells): less metastatic; growth rate of tumor xenografts (HT29m colon carcinoma): inhibited the growth rate; tumor cell invasion through extracellular matrix (tumor cell invasion): block tumor cell invasion; increase in the number of early CFU-E ([6]; 0.03 μg/ml to 10 μg/ml in vitro): ~3 fold; number of early CFU-E, counted on day 3 ([6]; added to methylcellulose in vitro): significantly increased; mean CFU-E of triplicate counts ± SD from 2 × 10^5 nucleated BM cells ([6]; mouse 1 (control), 0.3 μg/ml in vitro, in vitro control 54 ± 12): 108 ± 21; mean CFU-E of triplicate counts ± SD from 2 × 10^5 nucleated BM cells ([6]; mouse 1 (control), 3 μg/ml in vitro, in vitro control 54 ± 12): 101 ± 12; mean CFU-E of triplicate counts ± SD from 2 × 10^5 nucleated BM cells ([6]; mouse 2 (GD0039 treated in vivo, 20 μg/day for four days), 0.3 μg/ml in vitro): 71 ± 15; mean CFU-E of triplicate counts ± SD from 2 × 10^5 nucleated BM cells ([6]; mouse 2 (GD0039 treated in vivo, 20 μg/day for four days), 3 μg/ml in vitro): 103 ± 1; solubility ([7]; Table 5): 800 mg/mL (≈ 4620 mM); solubility ([7]; room temperature): ~800 mg/mL (≈ 4620 mM)
